# Earlier results in patent US20060198906A1, “Compositions and Method to Increase Serum Levels of HDL cholesterol and Lower the Risk of Cardiovascular Disease” (SAMI LABS LIMITED, priority 2005, published 2006).
# Details: dose range of 20-80 mg/day, clinical studies
structure (smiles),measurement,value
CC(C)c1nc(N(C)S(C)(=O)=O)nc(-c2ccc(F)cc2)c1/C=C/[C@@H](O)C[C@@H](O)CC(=O)O [Rosuvastatin],reduction of LDL levels,up to 65%
